ChEMBL document CHEMBL3992492, “Sulfoximines from a Medicinal Chemist's Perspective: Physicochemical and in vitro Parameters Relevant for Drug Discovery” (Eur J Med Chem, 2017)
Values after ≈ are worked out from the molar mass of the structure shown.

Tests used:
[1] = Dissociation constant, pKa of the compound; assay type: physicochemical
[2] = Dissociation constant, pKb of the compound in aqueous/organic mixture at pH 2 to 12 by potentiometric titration method; assay type: physicochemical; details: buffer
[3] = in vitro; details: human, liver microsomes
Description: Half life in human liver microsomes at 1 uM in presence of NADPH by LC-MS/MS method

[4] = physchem; details: acetonitrile/water mixture
Description: Solubility of the compound in acetonitrile/water mixture at 10 mM measured after 24 by HPLC-UV method

[5] = Apparent partition coefficient, log P of the compound in n-octanol/aqueous mixture by potentiometric titration method; assay type: physicochemical
[6] = in vitro; details: human, liver microsomes; remark: listed apart in the source
[7] = in vitro; details: PAMPA, pH 7.4
Description: Apparent permeability of the compound at pH 7.4 by PAMPA

[8] = physchem; details: octanol/water, pH 10
[9] = Drug degradation in pH >10 NH3 after 7 days by HPLC method
[10] = physchem; details: aqueous
[11] = Drug degradation in pH <1 HCl after 7 days by HPLC method
[12] = octanol/water, pH 7.4
[13] = Apparent partition coefficient, log P of the compound in n-octanol/aqueous mixture at pH 12 by potentiometric titration method; assay type: physicochemical; details: octanol/water
[14] = physchem; details: aqueous/organic mixture, pH 2
[15] = physchem; details: n-octanol/aqueous mixture, pH 2
[16] = physchem; details: n-octanol/aqueous mixture, pH 7.4
[17] = Dissociation constant, pKb of the compound in aqueous phase at pH 2 to 12 by potentiometric titration method; assay type: physicochemical; details: buffer
[18] = Apparent partition coefficient, log P of the compound in n-octanol/aqueous mixture at pH 3 by potentiometric titration method; assay type: physicochemical

CS(=N)(=O)c1ccc(Cl)cc1 (stereo not given)
pKa [1]: 2.3

O=S1(=Nc2ccncc2)CCCCC1
pKb [2]: 7.2 | half-life at 1 µM [3]: > 130 min | solubility at 10000 µM [4]: 42 µg/mL (≈ 200 µM) | logP [5]: -2.6 | hepatic extraction ratio at 1 µM [6]: < 0.23 | Papp [7]: 5.7 ×10⁻⁶ cm/s

CS(C)(=O)=NC(=O)c1ccc(C(F)(F)F)cc1
logP [8]: 1.8 | half-life at 1 µM [3]: 62 min | solubility at 10000 µM [4]: > 53 µg/mL | Drug degradation [9]: < 10% | hepatic extraction ratio at 1 µM [6]: 0.39 | Papp [7]: 11 ×10⁻⁶ cm/s | solubility thermodynamic [10]: 300 µg/mL (≈ 1130 µM) | Drug degradation [11]: > 90%

CS(C)(=O)=N[C@H]1CC[C@@H](C(F)(F)F)CC1
pKb [2]: 4.2 | half-life at 1 µM [3]: > 130 min | hepatic extraction ratio at 1 µM [6]: < 0.23 | logD [12]: 2.4 | logP [13]: 2.4 | Papp [7]: 7.8 ×10⁻⁶ cm/s | solubility thermodynamic [10]: 300 µg/mL (≈ 1230 µM)

CS(=N)(=O)c1ccc(C(F)(F)F)cc1 (stereo not given)
pKb [2]: 2.5 | half-life at 1 µM [3]: > 130 min | solubility at 10000 µM [4]: > 50 µg/mL | hepatic extraction ratio at 1 µM [6]: < 0.23 | logD [12]: 2 | logP [13]: 2 | Papp [7]: 6.9 ×10⁻⁶ cm/s | solubility thermodynamic [10]: 9100 µg/mL (≈ 40800 µM)

CNS(=O)(=O)c1ccc(C(F)(F)F)cc1
pKa [14]: 10.7 | half-life at 1 µM [3]: > 130 min | solubility at 10000 µM [4]: > 49 µg/mL | logD [15]: 2.3 | hepatic extraction ratio at 1 µM [6]: < 0.23 | Papp [7]: 6.3 ×10⁻⁶ cm/s | solubility thermodynamic [10]: 900 µg/mL (≈ 3760 µM) | logD [16]: 2.3

O=S1(=O)CCNCC1
pKb [17]: 5.4

CS(=N)(=O)c1ccccc1 (stereo not given)
pKa [1]: 2.7

N=S1(=Nc2ccc(C(F)(F)F)cc2)CCCCC1
logP [8]: 1.3 | pKb [2]: 4 | half-life at 1 µM [3]: 110 min | solubility at 10000 µM [4]: 44 µg/mL (≈ 159 µM) | Drug degradation [9]: < 10% | hepatic extraction ratio at 1 µM [6]: 0.25 | Papp [7]: 7.3 ×10⁻⁶ cm/s | solubility thermodynamic [10]: 500 µg/mL (≈ 1810 µM) | Drug degradation [11]: 13%

O=S1(=N[C@H]2CC[C@@H](C(F)(F)F)CC2)CCCCC1
pKb [2]: 5 | half-life at 1 µM [3]: 52 min | hepatic extraction ratio at 1 µM [6]: 0.43 | logD [12]: 3.5 | logP [13]: 3.5 | Papp [7]: 10 ×10⁻⁶ cm/s | solubility thermodynamic [10]: < 50 µg/mL

CS(=O)(=O)NC(=O)c1ccc(C(F)(F)F)cc1
pKa [14]: 3.2 | half-life at 1 µM [3]: > 130 min | solubility at 10000 µM [4]: > 62 µg/mL | logD [15]: 1.7 | hepatic extraction ratio at 1 µM [6]: < 0.23 | Papp [7]: 0.01 ×10⁻⁶ cm/s | solubility thermodynamic [10]: > 20000 µg/mL | logD [16]: -1

O=S1(=Nc2cccnc2)CCCCC1
pKb [2]: 4.8 | half-life at 1 µM [3]: 8 min | solubility at 10000 µM [4]: > 75 µg/mL | logP [5]: -2.7 | hepatic extraction ratio at 1 µM [6]: 0.82 | Papp [7]: 5.8 ×10⁻⁶ cm/s

CS(C)(=N)=NC(=O)Nc1ccc(C(F)(F)F)cc1
logP [8]: 0.4 | pKb [2]: 3.3 | solubility at 10000 µM [4]: > 68 µg/mL | Drug degradation [9]: < 10% | Papp [7]: 3.3 ×10⁻⁶ cm/s | solubility thermodynamic [10]: 500 µg/mL (≈ 1790 µM) | Drug degradation [11]: < 10%

NS(=O)(=O)c1ccc(C(F)(F)F)cc1
pKa [14]: 9.4 | half-life at 1 µM [3]: > 130 min | solubility at 10000 µM [4]: > 48 µg/mL | logD [15]: 1.4 | hepatic extraction ratio at 1 µM [6]: < 0.23 | Papp [7]: 4.1 ×10⁻⁶ cm/s | solubility thermodynamic [10]: 800 µg/mL (≈ 3550 µM) | logD [16]: 1.4

O=S1(=Nc2ccc(C(F)(F)F)cc2)CCCCC1
logP [8]: 2.8 | half-life at 1 µM [3]: 46 min | solubility at 10000 µM [4]: 51 µg/mL (≈ 184 µM) | logP [5]: 2.8 | Drug degradation [9]: < 10% | hepatic extraction ratio at 1 µM [6]: 0.46 | Papp [7]: 7.7 ×10⁻⁶ cm/s | solubility thermodynamic [10]: 70 µg/mL (≈ 252 µM) | Drug degradation [11]: < 10%

CNS(=N)(=O)c1ccc(C(F)(F)F)cc1 (stereo not given)
logP [8]: -0.5 | pKb [2]: 2.4 | half-life at 1 µM [3]: 47 min | Drug degradation [9]: < 10% | hepatic extraction ratio at 1 µM [6]: 0.45 | logD [12]: 0.9 | logP [13]: 0.9 | Papp [7]: 5.7 ×10⁻⁶ cm/s | solubility thermodynamic [10]: 6900 µg/mL (≈ 29000 µM) | Drug degradation [11]: 10%

CS(C)(=O)=NC(=O)Nc1ccc(C(F)(F)F)cc1
logP [8]: 1.6 | half-life at 1 µM [3]: > 130 min | solubility at 10000 µM [4]: 44 µg/mL (≈ 157 µM) | Drug degradation [9]: 14% | hepatic extraction ratio at 1 µM [6]: < 0.23 | Papp [7]: 4.3 ×10⁻⁶ cm/s | solubility thermodynamic [10]: 40 µg/mL (≈ 143 µM) | Drug degradation [11]: < 10%

CN=S(C)(=O)c1ccc(C(F)(F)F)cc1 (stereo not given)
logP [8]: 0.1 | half-life at 1 µM [3]: > 130 min | solubility at 10000 µM [4]: > 54 µg/mL | Drug degradation [9]: < 10% | hepatic extraction ratio at 1 µM [6]: < 0.23 | Papp [7]: 11 ×10⁻⁶ cm/s | solubility thermodynamic [10]: 2400 µg/mL (≈ 10100 µM) | Drug degradation [11]: < 10%

O=S1(=Nc2ccc(C(F)(F)F)cc2)CCNCC1
pKb [2]: 5.2 | half-life at 1 µM [3]: 110 min | solubility at 10000 µM [4]: > 57 µg/mL | logP [5]: 0.9 | hepatic extraction ratio at 1 µM [6]: 0.25 | Papp [7]: 8.3 ×10⁻⁶ cm/s | solubility thermodynamic [10]: 2300 µg/mL (≈ 8260 µM)

CS(C)(=N)=Nc1ccc(C(F)(F)F)cc1
logP [8]: -0.5 | pKb [2]: 4 | half-life at 1 µM [3]: > 130 min | solubility at 10000 µM [4]: > 51 µg/mL | hepatic extraction ratio at 1 µM [6]: < 0.23 | logD [12]: 1.8 | logP [13]: 1.8 | Papp [7]: 5.6 ×10⁻⁶ cm/s | solubility thermodynamic [10]: 8400 µg/mL (≈ 35600 µM)

CS(=O)(=O)Nc1ccc(C(F)(F)F)cc1
pKa [14]: 8 | logD [18]: 2 | half-life at 1 µM [3]: > 130 min | solubility at 10000 µM [4]: 47 µg/mL (≈ 196 µM) | hepatic extraction ratio at 1 µM [6]: < 0.23 | Papp [7]: 5.1 ×10⁻⁶ cm/s | solubility thermodynamic [10]: 600 µg/mL (≈ 2510 µM) | logD [16]: 1.9

O=S1(c2ccc(C(F)(F)F)cc2)=NCCCC1 (stereo not given)
logP [8]: 0.2 | pKb [2]: 3.8 | half-life at 1 µM [3]: > 130 min | solubility at 10000 µM [4]: > 59 µg/mL | Drug degradation [9]: 34% | hepatic extraction ratio at 1 µM [6]: < 0.23 | Papp [7]: 9.2 ×10⁻⁶ cm/s | solubility thermodynamic [10]: 4700 µg/mL (≈ 17900 µM) | Drug degradation [11]: < 10%

CS(=O)(=O)NC(=O)Nc1ccc(C(F)(F)F)cc1
pKa [14]: 4.2 | half-life at 1 µM [3]: > 130 min | solubility at 10000 µM [4]: 55 µg/mL (≈ 195 µM) | logD [15]: 1.9 | hepatic extraction ratio at 1 µM [6]: < 0.23 | Papp [7]: 0.04 ×10⁻⁶ cm/s | solubility thermodynamic [10]: 11100 µg/mL (≈ 39300 µM) | logD [16]: -0.3

CS(C)(=O)=Nc1ccc(C(F)(F)F)cc1
logP [8]: 1.4 | half-life at 1 µM [3]: > 130 min | solubility at 10000 µM [4]: > 50 µg/mL | logP [5]: 1.4 | Drug degradation [9]: 20% | hepatic extraction ratio at 1 µM [6]: < 0.23 | Papp [7]: 8.2 ×10⁻⁶ cm/s | solubility thermodynamic [10]: 900 µg/mL (≈ 3790 µM) | Drug degradation [11]: 13%
